From article PMC4635352, “Preventive effect of oral goshajinkigan on chronic oxaliplatin-induced hypoesthesia in rats” (Scientific Reports, 2015)
Read-outs that look alike come from different tables or passages of the source.

Experiments:
neuro2A cells = settings: for oxaliplatin-induced ROS generation, effect of antioxidants: Supplementary Figure S1; for oxaliplatin-induced ROS generation: co-administration with oxaliplatin, 100 μM (first screening), 1–100 μM (second screening), 1 h; for ROS generation in neuro2A cells by metabolites of oxaliplatin: data not shown
SHSY-5Y cells = tested on: SHSY-5Y cells; parameters: method as in PMID 21241762, PMID 19379729, PMID 24263411; settings: cited from earlier work
[1] = pharmacokinetic study of GJG-derived compounds in rat plasma (LC-MS/MS); format: in vivo; settings: for time at which maximum plasma concentration (Cmax) was reached: after oral administration of GJG 1.0 g/kg; for Cmax / Tmax: rat plasma after oral GJG 1.0 g/kg, mean ± S.D.; for time for which the high plasma concentration was maintained: after oral administration of GJG
Experimental: Rats cannulated in the jugular vein were fasted for more than 16 hours with access to water. At the time of 0.083, 0.25, 0.5, 1, 2, 4 and 8 hours after oral administration of GJG (1.0 g/10 mL/kg), blood samples were collected with a heparin-coated syringe and centrifuged at 3000 rpm for 15 minutes at 4 °C. The plasma samples were pretreated by precipitating plasma protein with an organic solvent or by solid-phase extraction and injected into the LC-MS/MS system for analysis. Components of GJG in plasma were measured by a QTRAP®5500 system (AB SCIEX, Tokyo, Japan) equipped with an Agilent 1260 HPLC system (binary pump, online degasser, auto plate-sampler and column oven; Agilent Technologies, Tokyo, Japan). The lower limits for quantification were 0.001 ng/mL for benzoylaconine, benzoylmesaconine, benzoylhypaconine; 0.002 ng/mL for 14-anisoylaconine; 0.2 ng/mL for loganin and morroniside; 0.5 ng/mL for paeoniflorin; and 5 ng/mL for catalpol. Cmax and time to reach maximum plasma concentration (Tmax) as pharmacokinetic parameters were calculated based on the plasma concentration of each compound by Phoenix WinNonlin (version 6.3; Certara L.P., St. Louis, MO, USA).

time at which maximum plasma concentration (Cmax) was reached [1] [min] | Cmax ([1]; read-out: Cmax) [ng/mL] | Tmax ([1]; read-out: Tmax) [min] | Compound | oxaliplatin-induced ROS generation (neuro2A cells) | Cmax [1] [ng/mL] | Tmax [1] [min] | further results
 |  |  | CC(=O)N[C@@H](CS)C(=O)O [N-acetyl cysteine] |  |  |  | oxaliplatin-induced ROS generation, effect of antioxidants (neuro2A cells): inhibited
30 | 9.1 ± 1.2 | 34.8 ± 12 | C[C@@]12C[C@@]3(O)O[C@@H](O1)[C@]1(COC(=O)c4ccccc4)[C@H]3C[C@@]12O[C@@H]1O[C@H](CO)[C@@H](O)[C@H](O)[C@H]1O [Paeoniflorin, paeoniflorin] | significantly decreased |  |  | ROS production induced by H2O2 or amyloid β 25–35 peptide (SHSY-5Y cells): attenuate ROS production
 |  |  | CCN1C[C@]2(COC)[C@H](O)C[C@H](OC)C34C1C([C@H](OC)[C@@H]32)[C@]1(O)[C@@H]2[C@H]4C[C@@](O)([C@@H]2OC(=O)c2ccc(OC)cc2)[C@@H](OC)[C@@H]1O [14-Anisoylaconine, 14-anisoylaconine] | significantly decreased | 0.009 ± 0.000 | 18.6 ± 7.8 | 
60 | 282 ± 119 | 60 ± 33 | OC[C@H]1O[C@@H](O[C@@H]2OC=C[C@H]3[C@H](O)[C@@H]4O[C@]4(CO)[C@@H]23)[C@H](O)[C@@H](O)[C@@H]1O [Catalpol, catalpol] |  |  |  | time for which the high plasma concentration was maintained [1]: 4 h
 |  |  | O=C(O)C(=O)O [oxalate] |  |  |  | ROS generation in neuro2A cells by metabolites of oxaliplatin (neuro2A cells): did not
 |  |  | N[C@@H](CCC(=O)N[C@@H](CS)C(=O)NCC(=O)O)C(=O)O [glutathione] |  |  |  | oxaliplatin-induced ROS generation, effect of antioxidants (neuro2A cells): inhibited
30 | 53.7 ± 26.9 | 40.2 ± 15.6 | COC(=O)C1=CO[C@@H](O[C@@H]2O[C@H](CO)[C@@H](O)[C@H](O)[C@H]2O)[C@@H]2[C@H](C)O[C@@H](O)C[C@H]12 [Morroniside, morroniside] | significantly decreased |  |  | ROS production induced by H2O2 or amyloid β 25–35 peptide (SHSY-5Y cells): attenuate ROS production; rank of anti-ROS action among active components (neuro2A cells; among LO, MO, PF and 14-AA): strongest action; time for which the high plasma concentration was maintained [1]: 4 h
 |  |  | [Cl][Pt+2][Cl].[NH-]C1CCCCC1[NH-] (centres unmarked) [Pt(dach)Cl2, dichloro (1,2-diaminocyclohexane) platinum] |  |  |  | ROS generation in neuro2A cells by metabolites of oxaliplatin (neuro2A cells): increased ROS generation
 |  |  | COC[C@@]12CC[C@H](OC)[C@]34C([C@H]([C@H](OC)[C@H]13)[C@]1(O)[C@H]3[C@@H](OC(=O)c5ccccc5)[C@](O)(C[C@H]34)[C@@H](OC)[C@@H]1O)N(C)C2 [Benzoylhypaconine, benzoylhypaconine] |  | 0.013 ± 0.001 | 30 ± 0 | 
 |  |  | CCN1C[C@]2(COC)[C@H](O)C[C@H](OC)[C@@]34[C@@H]5C[C@@]6(O)[C@H](OC(=O)c7ccccc7)[C@@H]5[C@@](O)([C@@H]([C@H](OC)[C@H]23)[C@@H]14)[C@@H](O)[C@@H]6OC [Benzoylaconine, benzoylaconine] |  | 0.012 ± 0.002 | 30 ± 0 | 
30 | 43.7 ± 25.7 | 34.8 ± 12 | COC(=O)C1=CO[C@@H](O[C@@H]2O[C@H](CO)[C@@H](O)[C@H](O)[C@H]2O)[C@@H]2[C@@H](C)[C@@H](O)C[C@H]12 [Loganin, loganin] | significantly decreased |  |  | ROS production induced by H2O2 or amyloid β 25–35 peptide (SHSY-5Y cells): attenuate ROS production; time for which the high plasma concentration was maintained [1]: 4 h
 |  |  | COC[C@]12CN(C)C3[C@@H]4[C@H](OC)[C@H]1[C@@]3([C@@H](OC)C[C@H]2O)[C@@H]1C[C@@]2(O)[C@H](OC(=O)c3ccccc3)[C@@H]1[C@]4(O)[C@@H](O)[C@@H]2OC [Benzoylmesaconine, benzoylmesaconine] |  | 0.041 ± 0.006 | 26.4 ± 7.8 | 
